The Kinase Knowledgebase extract (Sharma et al. 2016)

The compounds below were run against PIK3CA (human) (UniProt P42336) (assay: Cell-Based Assay). Conditions: bt20.
Chain of PIK3CA (human) (P42336 whole entry, looked up): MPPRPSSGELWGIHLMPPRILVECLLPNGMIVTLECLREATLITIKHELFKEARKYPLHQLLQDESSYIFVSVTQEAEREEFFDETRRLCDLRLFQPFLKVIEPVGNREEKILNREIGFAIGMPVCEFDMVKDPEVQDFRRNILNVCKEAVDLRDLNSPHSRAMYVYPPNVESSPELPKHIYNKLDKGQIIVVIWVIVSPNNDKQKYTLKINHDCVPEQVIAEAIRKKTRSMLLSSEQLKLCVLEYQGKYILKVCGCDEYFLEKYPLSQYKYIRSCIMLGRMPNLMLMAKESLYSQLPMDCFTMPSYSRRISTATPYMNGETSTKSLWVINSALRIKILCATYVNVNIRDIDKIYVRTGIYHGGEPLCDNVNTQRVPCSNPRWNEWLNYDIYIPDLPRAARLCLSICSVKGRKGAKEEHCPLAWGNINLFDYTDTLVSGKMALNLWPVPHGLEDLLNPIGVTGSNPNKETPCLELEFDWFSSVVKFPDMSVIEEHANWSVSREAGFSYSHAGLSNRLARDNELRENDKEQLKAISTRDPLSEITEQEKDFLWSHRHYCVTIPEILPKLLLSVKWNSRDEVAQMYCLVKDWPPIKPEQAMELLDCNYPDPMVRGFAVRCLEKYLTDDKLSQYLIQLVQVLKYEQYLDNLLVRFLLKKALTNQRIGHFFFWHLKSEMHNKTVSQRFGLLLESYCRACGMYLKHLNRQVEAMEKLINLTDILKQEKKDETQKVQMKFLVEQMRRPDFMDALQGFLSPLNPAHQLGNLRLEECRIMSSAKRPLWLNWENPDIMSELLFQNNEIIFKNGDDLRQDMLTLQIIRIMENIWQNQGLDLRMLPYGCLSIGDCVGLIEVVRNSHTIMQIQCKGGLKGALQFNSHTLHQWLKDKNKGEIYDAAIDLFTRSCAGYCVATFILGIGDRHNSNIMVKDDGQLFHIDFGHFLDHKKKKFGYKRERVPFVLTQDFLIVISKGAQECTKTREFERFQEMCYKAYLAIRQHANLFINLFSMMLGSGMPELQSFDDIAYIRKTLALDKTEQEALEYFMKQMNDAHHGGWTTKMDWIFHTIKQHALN
`CN(C)C(=O)CN1CCC(n2c(=O)n(C)c3cnc4ccc(-c5cnn(C)c5)nc4c32)CC1` gave an IC50 of 248 nM. Compound `Cc1ccc(-c2ccc3ncc4c(c3n2)n(C2CCN(C(=O)CN(C)C)CC2)c(=O)n4C)cn1` has an IC50 of 42.7 nM. With `COc1ccc(-c2ccc3ncc4[nH]c(=O)n(-c5ccc(C(C)(C)C#N)cc5)c4c3n2)cn1` the IC50 was 11.5 nM. Compound `Cn1c(=O)n([C@H]2CC[C@H](O)CC2)c2c3nc(-c4cn[nH]c4)ccc3ncc21` has an IC50 of 19.7 nM. In the case of `CC(=O)N1CCC(n2c(=O)n(C)c3cnc4ccc(-c5ccnc6[nH]ncc56)nc4c32)CC1`, the IC50 is reported as 140 nM. `O=c1[nH]c2cnc3ccc(-c4cnc5ccccc5c4)nc3c2n1C1CCNCC1` gave an IC50 of 353 nM. Compound `Cn1c(=O)n([C@H]2CC[C@H](O)CC2)c2c3nc(-c4ccc5[nH]ncc5c4)ccc3ncc21` has an IC50 of 20.5 nM. `Cn1c(=O)n(C2CCN(C(=O)C(C)(C)O)CC2)c2c3nc(-c4cnc5ccccc5c4)ccc3ncc21` gave an IC50 of 28 nM. For `CNC(=O)N1CCC(n2c(=O)n(C)c3cnc4ccc(-c5ccc(C)nc5)nc4c32)CC1`, the IC50 was 59.4 nM. `O=C(OCc1ccccc1)N1CCC(n2c(=O)[nH]c3cnc4ccc(-c5cnc6ccccc6c5)nc4c32)CC1` gave an IC50 of 32.2 nM. `Cn1cc(-c2ccc3ncc4c(c3n2)n([C@H]2CC[C@H](C(N)=O)CC2)c(=O)n4C)cn1` was tested, and the IC50 was 224 nM. `CN(C)c1ccc(-c2ccc3ncc4c(c3n2)n(C2CCN(C(=O)C(C)(C)O)CC2)c(=O)n4C)cn1` was tested, and the IC50 was 6.69 nM. With `COc1ccc(-c2ccc3ncc4c(c3n2)n(CCN2CCNCC2)c(=O)n4C)cn1` the IC50 was 344 nM. In the case of `CC(=O)N1CCC(n2c(=O)n(C)c3cnc4ccc(-c5ccc(N(C)C)nc5)nc4c32)CC1`, the IC50 is reported as 17.2 nM. Work on `COc1ccc(-c2ccc3ncc4[nH]c(=O)n(Cc5ccccc5)c4c3n2)cn1` yielded an IC50 of 24.5 nM. Work on `COc1ccc(-c2ccc3ncc4c(c3n2)n(C2CCN(C(C)C)CC2)c(=O)n4C)cn1` yielded an IC50 of 55.1 nM. `Cn1c(=O)n([C@H]2CC[C@H](O)CC2)c2c3nc(-c4cnn(CCO)c4)ccc3ncc21` showed an IC50 of 448 nM. For `COc1ccc(-c2ccc3ncc4[nH]c(=O)n([C@H]5CC[C@H](O)CC5)c4c3n2)cn1`, the IC50 was 46.8 nM. `Cc1ccc(-c2ccc3ncc4c(c3n2)n([C@H]2CC[C@H](OCCO)CC2)c(=O)n4C)cn1` showed an IC50 of 8.63 nM. In the case of `COc1cccc(-c2ccc3ncc4c(c3n2)n(C2CCN(C(C)=O)CC2)c(=O)n4C)c1`, the IC50 is reported as 57.7 nM. In the case of `COc1ccc(-c2ccc3ncc4c(c3n2)n(C2CCN(C(C)=O)CC2)c(=O)n4C)cc1`, the IC50 is reported as 11.3 nM. Work on `Cn1c(=O)n(-c2ccc(C(C)(C)C#N)cc2)c2c3nc(-c4cnc5ccccc5c4)ccc3ncc21` yielded an IC50 of 3.54 nM. `CC(C)OC(=O)N1CCC(n2c(=O)n(C)c3cnc4ccc(-c5cnc6ccccc6c5)nc4c32)CC1` was tested, and the IC50 was 19.6 nM. Work on `COCCn1c(=O)n(C)c2cnc3ccc(-c4ccc(OC)nc4)nc3c21` yielded an IC50 of 207 nM. Compound `COc1ncc(-c2ccc3ncc4c(c3n2)n(C2CCN(CCO)CC2)c(=O)n4C)cn1` has an IC50 of 124 nM. In the case of `CNC(=O)N1CCC(n2c(=O)n(C)c3cnc4ccc(-c5cnc6ccccc6c5)nc4c32)CC1`, the IC50 is reported as 7.34 nM. For `COc1ccc(-c2ccc3ncc4c(c3n2)n([C@H](C)CO)c(=O)n4C)cn1`, the IC50 was 237 nM. Work on `COc1ncc(-c2ccc3ncc4c(c3n2)n(C2CCN(C)CC2)c(=O)n4C)cn1` yielded an IC50 of 159 nM. `Cn1cc(-c2ccc3ncc4c(c3n2)n(C2CCOCC2)c(=O)n4C)cn1` gave an IC50 of 71.8 nM. `Cn1cc(-c2ccc3ncc4c(c3n2)n(C2CCN(CC(F)(F)F)CC2)c(=O)n4C)cn1` showed an IC50 of 195 nM. In the case of `CN(C)CC(=O)N1CCC(n2c(=O)n(C)c3cnc4ccc(-c5ccc(N(C)C)nc5)nc4c32)CC1`, the IC50 is reported as 15.3 nM. Compound `Cn1c(=O)n(C2CCN(CC(F)(F)F)CC2)c2c3nc(-c4cnc5ccccc5c4)ccc3ncc21` has an IC50 of 14.8 nM. `CNC(=O)N1CCC(n2c(=O)n(C)c3cnc4ccc(-c5ccc(OC)nc5)nc4c32)CC1` gave an IC50 of 9.19 nM. Compound `C[C@H](CO)n1c(=O)n(C)c2cnc3ccc(-c4cnc(N)nc4)nc3c21` has an IC50 of 331 nM. In the case of `Cc1ccc(-c2ccc3ncc4c(c3n2)n([C@H](C)CO)c(=O)n4C)cn1`, the IC50 is reported as 269 nM. For `C[C@@H](O)C(=O)N1CCC(n2c(=O)n(C)c3cnc4ccc(-c5ccc(N(C)C)nc5)nc4c32)CC1`, the IC50 was 5.53 nM. Compound `COc1cccc(-c2ccc3ncc4c(c3n2)n(C2CCN(C(=O)[C@H](C)O)CC2)c(=O)n4C)c1` has an IC50 of 34.4 nM. In the case of `COc1ncc(-c2ccc3ncc4c(c3n2)n([C@H]2CC[C@H](C(N)=O)CC2)c(=O)n4C)cn1`, the IC50 is reported as 45.6 nM. For `Cn1c(=O)n(C2CCNCC2)c2c3nc(-c4cnc(N)nc4)ccc3ncc21`, the IC50 was 137 nM. `Cn1cc(-c2ccc3ncc4c(c3n2)n(C2CCN(C(=O)C(C)(C)O)CC2)c(=O)n4C)cn1` showed an IC50 of 30.4 nM. `Cn1c(=O)n(C2CCN(C(=O)C(C)(C)O)CC2)c2c3nc(-c4cnc5[nH]ncc5c4)ccc3ncc21` gave an IC50 of 9.91 nM. For `CN(C)c1ccc(-c2ccc3ncc4c(c3n2)n(C2CCN(CCO)CC2)c(=O)n4C)cn1`, the IC50 was 32.5 nM. `COc1cccc(-c2ccc3ncc4c(c3n2)n(C2CCN(C(=O)CO)CC2)c(=O)n4C)c1` was tested, and the IC50 was 30.4 nM. For `COc1ncc(-c2ccc3ncc4c(c3n2)n(C2CCNCC2)c(=O)n4C)cn1`, the IC50 was 333 nM. In the case of `COc1ccc(-c2ccc3ncc4c(c3n2)n(C2CCN(C(=O)CN(C)C)CC2)c(=O)n4C)cn1`, the IC50 is reported as 14.4 nM.
